Test results published in BigSolDB 2.1.

Work on `CC(=O)OC(OC(C)=O)c1ccc([N+](=O)[O-])o1` yielded a solubility (mole fraction) (in 1,4-dioxane, 278.15 K) of 0.0821, a solubility (mole fraction) (in 1,4-dioxane, 283.15 K) of 0.0954 and a solubility (mole fraction) (in 1,4-dioxane, 288.15 K) of 0.109. It also gave a solubility (mole fraction) (in 1,4-dioxane, 293.15 K) of 0.131, a solubility (mole fraction) (in 1,4-dioxane, 298.15 K) of 0.146 and a solubility (mole fraction) (in 1,4-dioxane, 303.15 K) of 0.166. For the same compound, the solubility (mole fraction) (in 1,4-dioxane, 308.15 K) was 0.188, the solubility (mole fraction) (in 1,4-dioxane, 313.15 K) was 0.214 and the solubility (mole fraction) (in 1,4-dioxane, 318.15 K) was 0.237. The solubility (mole fraction) (in 1,4-dioxane, 323.15 K) was 0.267, the solubility (mole fraction) (in DMF, 278.15 K) was 0.161 and the solubility (mole fraction) (in DMF, 283.15 K) was 0.174. The solubility (mole fraction) (in DMF, 288.15 K) was 0.192, the solubility (mole fraction) (in DMF, 293.15 K) was 0.209 and the solubility (mole fraction) (in DMF, 298.15 K) was 0.227. The solubility (mole fraction) (in DMF, 303.15 K) was 0.248, the solubility (mole fraction) (in DMF, 308.15 K) was 0.271 and the solubility (mole fraction) (in DMF, 313.15 K) was 0.296. For the same compound, the solubility (mole fraction) (in DMF, 318.15 K) was 0.319, the solubility (mole fraction) (in DMF, 323.15 K) was 0.351 and the solubility (mole fraction) (in THF, 278.15 K) was 0.121. The solubility (mole fraction) (in THF, 283.15 K) was 0.146, the solubility (mole fraction) (in THF, 288.15 K) was 0.181 and the solubility (mole fraction) (in THF, 293.15 K) was 0.217. The solubility (mole fraction) (in THF, 298.15 K) was 0.256, the solubility (mole fraction) (in THF, 303.15 K) was 0.298 and the solubility (mole fraction) (in THF, 308.15 K) was 0.341. It also gave a solubility (mole fraction) (in THF, 313.15 K) of 0.385, a solubility (mole fraction) (in THF, 318.15 K) of 0.434 and a solubility (mole fraction) (in THF, 323.15 K) of 0.488. For the same compound, the solubility (mole fraction) (in acetone, 278.15 K) was 0.0864, the solubility (mole fraction) (in acetone, 283.15 K) was 0.108 and the solubility (mole fraction) (in acetone, 288.15 K) was 0.127. It also gave a solubility (mole fraction) (in acetone, 293.15 K) of 0.156, a solubility (mole fraction) (in acetone, 298.15 K) of 0.182 and a solubility (mole fraction) (in acetone, 303.15 K) of 0.214. The solubility (mole fraction) (in acetone, 308.15 K) was 0.249, the solubility (mole fraction) (in acetone, 313.15 K) was 0.291 and the solubility (mole fraction) (in acetone, 318.15 K) was 0.33. The solubility (mole fraction) (in acetone, 323.15 K) was 0.379, the solubility (mole fraction) (in acetonitrile, 278.15 K) was 0.0016 and the solubility (mole fraction) (in acetonitrile, 283.15 K) was 0.002. For the same compound, the solubility (mole fraction) (in acetonitrile, 288.15 K) was 0.0028, the solubility (mole fraction) (in acetonitrile, 293.15 K) was 0.0038 and the solubility (mole fraction) (in acetonitrile, 298.15 K) was 0.0052. The solubility (mole fraction) (in acetonitrile, 303.15 K) was 0.0069, the solubility (mole fraction) (in acetonitrile, 308.15 K) was 0.0093 and the solubility (mole fraction) (in acetonitrile, 313.15 K) was 0.0126. The solubility (mole fraction) (in acetonitrile, 318.15 K) was 0.0167, the solubility (mole fraction) (in acetonitrile, 323.15 K) was 0.0215 and the solubility (mole fraction) (in ethyl acetate, 278.15 K) was 0.002. The solubility (mole fraction) (in ethyl acetate, 283.15 K) was 0.0031, the solubility (mole fraction) (in ethyl acetate, 288.15 K) was 0.0048 and the solubility (mole fraction) (in ethyl acetate, 293.15 K) was 0.0068. It also gave a solubility (mole fraction) (in ethyl acetate, 298.15 K) of 0.0101, a solubility (mole fraction) (in ethyl acetate, 303.15 K) of 0.0143 and a solubility (mole fraction) (in ethyl acetate, 308.15 K) of 0.02. It also gave a solubility (mole fraction) (in ethyl acetate, 313.15 K) of 0.0283, a solubility (mole fraction) (in ethyl acetate, 318.15 K) of 0.0405 and a solubility (mole fraction) (in ethyl acetate, 323.15 K) of 0.0548. For the same compound, the solubility (mole fraction) (in methanol, 278.15 K) was 0.0778, the solubility (mole fraction) (in methanol, 283.15 K) was 0.0834 and the solubility (mole fraction) (in methanol, 288.15 K) was 0.0898. The solubility (mole fraction) (in methanol, 293.15 K) was 0.0995, the solubility (mole fraction) (in methanol, 298.15 K) was 0.108 and the solubility (mole fraction) (in methanol, 303.15 K) was 0.118. For the same compound, the solubility (mole fraction) (in methanol, 308.15 K) was 0.129, the solubility (mole fraction) (in methanol, 313.15 K) was 0.143 and the solubility (mole fraction) (in methanol, 318.15 K) was 0.155. It also gave a solubility (mole fraction) (in methanol, 323.15 K) of 0.173, a solubility (mole fraction) (in n-hexane, 278.15 K) of 0.0285 and a solubility (mole fraction) (in n-hexane, 283.15 K) of 0.0358. For the same compound, the solubility (mole fraction) (in n-hexane, 288.15 K) was 0.0458, the solubility (mole fraction) (in n-hexane, 293.15 K) was 0.0562 and the solubility (mole fraction) (in n-hexane, 298.15 K) was 0.0721. For the same compound, the solubility (mole fraction) (in n-hexane, 303.15 K) was 0.0883, the solubility (mole fraction) (in n-hexane, 308.15 K) was 0.109 and the solubility (mole fraction) (in n-hexane, 313.15 K) was 0.133. It also gave a solubility (mole fraction) (in n-hexane, 318.15 K) of 0.162, a solubility (mole fraction) (in n-hexane, 323.15 K) of 0.196 and a solubility (mole fraction) (in n-propanol, 278.15 K) of 0.0435. For the same compound, the solubility (mole fraction) (in n-propanol, 283.15 K) was 0.0474, the solubility (mole fraction) (in n-propanol, 288.15 K) was 0.0513 and the solubility (mole fraction) (in n-propanol, 293.15 K) was 0.0571. It also gave a solubility (mole fraction) (in n-propanol, 298.15 K) of 0.0625, a solubility (mole fraction) (in n-propanol, 303.15 K) of 0.0687 and a solubility (mole fraction) (in n-propanol, 308.15 K) of 0.0761. It also gave a solubility (mole fraction) (in n-propanol, 313.15 K) of 0.0843, a solubility (mole fraction) (in n-propanol, 318.15 K) of 0.0924 and a solubility (mole fraction) (in n-propanol, 323.15 K) of 0.104. The solubility (mole fraction) (in toluene, 278.15 K) was 0.141, the solubility (mole fraction) (in toluene, 283.15 K) was 0.154 and the solubility (mole fraction) (in toluene, 288.15 K) was 0.171. It also gave a solubility (mole fraction) (in toluene, 293.15 K) of 0.192, a solubility (mole fraction) (in toluene, 298.15 K) of 0.211 and a solubility (mole fraction) (in toluene, 303.15 K) of 0.239. It also gave a solubility (mole fraction) (in toluene, 308.15 K) of 0.267, a solubility (mole fraction) (in toluene, 313.15 K) of 0.293 and a solubility (mole fraction) (in toluene, 318.15 K) of 0.33. For the same compound, the solubility (mole fraction) (in toluene, 323.15 K) was 0.373.
